As a reminder, the IC50 is the concentration needed to halve the response being measured. Read a high IC50 as lower potency. The CC50 is the concentration that lowers cell viability or growth by half. What is called EC50 is the concentration giving half of the maximal effect.

From ChEMBL document CHEMBL4828742, “Discovery of novel thiophene derivatives as potent neuraminidase inhibitors” (Eur J Med Chem, 2021) come the findings set out here.

Data set [1] is described as follows: Selectivity index, ratio of CC50 for cytotoxicity against dog MDCK cells to EC50 for antiviral activity against Influenza A virus (A/chicken/Hubei/327/2004(H5N1)) infected in dog MDCK cells. It is filed as toxicity, cell-based. To be noted: read-out: Ratio CC50/EC50.
The nature of data set [2]: Inhibition of Influenza A virus H5N1 neuraminidase. Details: species or system H5N1 subtype.
A short description of data set [3]: Cytotoxicity against dog MDCK cells assessed as decrease in cell viability by CCK8 assay. It is filed as cell-based, Canis lupus familiaris. In general terms: Formazan colour is commonly taken as a measure of viable cells.
Data set [4] deals with A549. Nature of the data set: Antiviral activity against Influenza A virus H5N1 infected in human A549 cells assessed as inhibition of viral replication by TCID50 assay. The class given is functional, cell-based. To be noted: H5N1 subtype.
The test system of data set [5] is H5N1 subtype. Nature of the data set: Antiviral activity against Influenza A virus H5N1 (A/chicken/Hubei/327/2004(H5N1)) infected in dog MDCK cells assessed as inhibition of virus replication by plaque reduction assay. It is filed as functional, organism-based. In general terms: Plaques are areas of infected cells; plaque reduction assays count them against a control.

Data set [6] deals with H5N1 subtype. Nature of the data set: Potency index, ratio of oseltamivir carboxylate IC50 to test compound IC50 for inhibition of Influenza A virus H5N1 neuraminidase.

Calls of active or inactive are those of the source. No cut-off for these calls is given here. Bounds are passed on as bounds.

`CCOC(=O)c1c(NC(=O)COc2ccc3ncccc3c2)sc(C(=O)OC)c1C`: the selectivity ratio in data set [1] is above 500. In data set [2], this compound registered an IC50 of 30 nM. Moreover, the CC50 in data set [3] was above 800000 nM. For the same compound, the outcome in data set [4] was Active. Further, the EC50 in data set [5] turned out to be 1590 nM. The Ratio IC50 in data set [6] stood at 2.

With `CCOC(=O)c1c(NC(=O)COc2ccccn2)sc(C(=O)OC)c1C`, it took 960 nM to reach half-maximal inhibition in data set [2] (IC50).

`CCOC(=O)c1c(NC(=O)COc2ccc(C=O)cc2OCC)sc(C(=O)OC)c1C` yielded an IC50 in data set [2] of 70 nM.

In the case of `CCOC(=O)c1c(NC(=O)COc2cc(Br)ccc2OC)sc(C(=O)OC)c1C`, the IC50 in data set [2] was determined as 240 nM.

Take `CCOC(=O)c1c(NC(=O)COc2ccc(NC(C)=O)cc2)sc(C(=O)OC)c1C`: half-maximal inhibition in data set [2] (IC50) required 50 nM.

Consider `CCOC(=O)c1c(NC(=O)COc2ccc(C=O)cc2)sc(C(=O)OC)c1C`, for which, in data set [2], half-maximal inhibition (IC50) required 8860 nM.

The compound `CCOC(=O)c1c(NC(=O)COc2cccc3ncccc23)sc(C(=O)OC)c1C` returned an IC50 in data set [2] of 40 nM.

In data set [2], `CCOC(=O)c1c(NC(=O)COc2cccc(C=O)c2)sc(C(=O)OC)c1C` displayed an IC50 of 5650 nM.

The compound `CCOC(=O)c1c(NC(=O)COc2ccc(C=O)cc2OC)sc(C(=O)OC)c1C` returned an IC50 in data set [2] of 4390 nM.

Turning to `CCOC(=O)c1c(NC(=O)COc2cccc(C(C)=O)c2)sc(C(=O)OC)c1C`, inhibition in data set [2] was half-maximal at 4770 nM (IC50).
